# Test results published in patent US20110251143A1, “STABLE ELSAMITRUCIN SALT FORMULATIONS” (Spectrum Pharmaceuticals, Inc., priority 2007, published 2011).
# Key:
# [1] = test system: B16F10 murine melanoma cells; experiment: MTT cell growth inhibition, B16F10; format: cell-based; conditions: 5-10 days
# Experimental: (§1) The following experiment confirms that the elsamitrucin salts made in accordance with the teachings of the present disclosure retain their in vitro anti-neoplastic activity when compared to elsamitrucin base. Elsamitrucin and elsamitrucin tosylate were tested in vitro using: B16F10 (murine […]), HCT 116 (human colon), HT29 (human colon) and SK-MES-1 (human non-small cell lung carcinoma). Cell growth inhibition was evaluated in 96-well micro-culture plates with a semi-automated MTT (3-(4,5-dimethylthiazol-2-yl)-2,5-diphenyltetrazolium bromide) assay. […]
# (§2) Cell culture plates seeded with test cells and various concentrations of elsamitrucin solutions were placed in a humidified incubator at 37° C., with CO2 and 95% air for 5-10 days. […] Absorbance was monitored at a wavelength of 595 nm, and at a reference wavelength of 650 nm, using a TECAN® GENios mocroplate reader. In all experiments, absorbance data was acquired for each agent at two overlapping concentration ranges. […]
# (§3) The results of each test were stored and imported into PRISM® 3.03 for graphical analysis and determination of IC50 values. All results were graphed as a percentage of controlled absorbance versus the drug concentration. […]
# [2] = test system: SK-MES-1 human non-small cell lung carcinoma; experiment: MTT cell growth inhibition, SK-MES-1; format: cell-based; conditions: SK-MES-1, MTT, 5-10 days
# Experimental: as §1, §2, §3
# [3] = test system: HCT 116 human colon carcinoma; experiment: MTT cell growth inhibition, HCT 116; format: cell-based; conditions: HCT 116, MTT, 5-10 days
# Experimental: as §1, §2, §3
# [4] = solubility of the p-TSA salt checked by HPLC; format: physicochemical; conditions: for solubility at pH 4 / Concentration (mg/mL) / solubility in water / Concentration: HPLC; for solubility in water / Concentration: slurry stirred at room temperature for six hours
# Description: The solubility of the p-TSA salt in water was checked by HPLC after stirring the slurry at room temperature for six hours.
# [5] = test system: HT29 human colon carcinoma; experiment: MTT cell growth inhibition, HT29; format: cell-based; conditions: 5-10 days
# Experimental: as §1, §2, §3
# [6] = solution stability in benzoate buffer (HPLC, MS); format: physicochemical; conditions: benzoate buffer (pH 4), 50° C., ten days, samples at 3, 5, 10 days
# Experimental: (§4) Elsamitrucin salts made in accordance with the teachings of the present disclosure were tested for stability. Two samples of the isolated p-TSA salt (40 mg each) were placed in a vacuum oven at 75° C. for nine hours. After this exposure, sample #1 was taken out, the temperature was increased to 98° C. and the second sample was dried overnight. […] The weight loss by TGA was approximately 2.5% for both samples. Karl Fischer analysis indicated the two lots still had water present: sample #1 had 4.0% water content and #2 had 4.6%. The p-TSA salt (16 mg) of elsamitrucin was dissolved in 1.6 mL of benzoate buffer (pH 4) and stirred at 50° C. for ten days. Samples for HPLC and MS were taken in 3, 5, and 10 days.
# [7] = solid state stability, drying at elevated temperatures (NMR); format: physicochemical; conditions: vacuum oven 75° C. nine hours; 98° C. overnight; NMR 1:1 salt ratio
# Experimental: as §4
substance,measurement,setting,value
elsamitrucin tosylate [Elsamitrucin p-TSA Salt],IC50,[1],28 nM
same,IC50,[2],45 nM
same,IC50,[3],79 nM
same,Vial Concentration,[4]; pH 4 (benzoate buffer),0.01789 M
same,solubility at pH 4 / Concentration (mg/mL),[4]; pH 4 (benzoate buffer),14.7 mg/mL
same,solubility at pH 4 / Concentration (mg/mL),"[4]; pH 4 (benzoate buffer), listed as OVL-A-143",14.78 mg/mL
same,Vial Concentration,[4]; water,0.01891 M
same,solubility in water / Concentration,[4]; water,15.6 mg/mL
same,solubility in water / Concentration,"[4]; water, listed as OVL-A-137",15.61 mg/mL
same,IC50,[5],105 nM
same,decomposition in solution,[6],No evidence of the decomposition product
same,decomposition in the solid state during drying,[7],no decomposition
